This note sets out measurements from ChEMBL document CHEMBL3044986, “Synthesis of 1-(4-aminosulfonylphenyl)-3,5-diarylpyrazoline derivatives as potent antiinflammatory and antimicrobial agents” (2012).

Test [1] relates to Rattus norvegicus. Nature of the test: Anti-inflammatory activity in Rattus norvegicus Wistar albino (rat) assessed as inhibition of carrageenan-induced paw edema at 4 mg/kg, ip administered 30 min prior to carrageenan-challenge measured at 4 hr by plethysmometric analysis relative to control. Format: functional. As to conditions: route intraperitoneal. Background: In the carrageenan paw model, swelling and tenderness develop within hours.

Test [2] has as its system Rattus norvegicus. Nature of the test: Anti-inflammatory activity in Rattus norvegicus Wistar albino (rat) assessed as inhibition of carrageenan-induced paw edema at 4 mg/kg, ip administered 30 min prior to carrageenan-challenge measured at 3 hr by plethysmometric analysis relative to control. Format: functional. As to conditions: route intraperitoneal.
Test [3] has as its system Rattus norvegicus. Nature of the test: Anti-inflammatory activity in Rattus norvegicus Wistar albino (rat) assessed as inhibition of carrageenan-induced paw edema at 4 mg/kg, ip administered 30 min prior to carrageenan-challenge measured at 2 hr by plethysmometric analysis relative to control. Format: functional. As to conditions: route intraperitoneal.
Test [4] deals with Rattus norvegicus. Nature of the test: Anti-inflammatory activity in Rattus norvegicus Wistar albino (rat) assessed as inhibition of carrageenan-induced paw edema at 4 mg/kg, ip administered 30 min prior to carrageenan-challenge measured at 1 hr by plethysmometric analysis relative to control. Format: functional. As to conditions: route intraperitoneal.
In test [5] the test system is Bacillus subtilis. Nature of the test: Antibacterial activity against Bacillus subtilis MTCC 121 after 24 hr by modified agar well diffusion assay. It counts as functional. As to conditions: MTCC 121, 24 h. Background: Agar diffusion results depend on both activity and mobility in agar.
In test [6] the test system is Staphylococcus aureus. Nature of the test: Antibacterial activity against Staphylococcus aureus MTCC 96 after 24 hr by modified agar well diffusion assay. It counts as functional. As to conditions: MTCC 96, 24 h.
Test [7] concerns Bacillus subtilis. Nature of the test: Antibacterial activity against Bacillus subtilis MTCC 121 at 4 mg/ml after 24 hr by agar well diffusion assay. Format: functional. As to conditions: MTCC 121, 24 h, read-out: DIZ.
The test system of test [8] is Staphylococcus aureus. Nature of the test: Antibacterial activity against Staphylococcus aureus MTCC 96 at 4 mg/ml after 24 hr by agar well diffusion assay. It counts as functional. As to conditions: MTCC 96, 24 h, read-out: DIZ.
The subject of test [9] is Rattus norvegicus. Nature of the test: Anti-inflammatory activity in Rattus norvegicus Wistar albino (rat) assessed as inhibition of carrageenan-induced paw edema at 50 mg/kg, po administered 30 min prior to carrageenan-challenge measured at 4 hr by plethysmometric analysis relative to control. It counts as functional.
Test [10] has as its system Rattus norvegicus. Nature of the test: Anti-inflammatory activity in Rattus norvegicus Wistar albino (rat) assessed as inhibition of carrageenan-induced paw edema at 50 mg/kg, po administered 30 min prior to carrageenan-challenge measured at 3 hr by plethysmometric analysis relative to control. It counts as functional.
Test [11] concerns Candida albicans. Nature of the test: Antifungal activity against Candida albicans MTCC 227 after 24 hr by modified agar well diffusion assay. It counts as functional.
Test [12] deals with Candida albicans. Nature of the test: Antifungal activity against Candida albicans MTCC 227 at 4 mg/ml after 24 hr by agar well diffusion assay. It counts as functional.
Test [13] deals with Saccharomyces cerevisiae. Nature of the test: Antifungal activity against Saccharomyces cerevisiae MTCC 170 after 24 hr by modified agar well diffusion assay. Format: functional.
The subject of test [14] is Saccharomyces cerevisiae. Nature of the test: Antifungal activity against Saccharomyces cerevisiae MTCC 170 at 4 mg/ml after 24 hr by agar well diffusion assay. Format: functional.
The subject of a further test is Pseudomonas aeruginosa. Nature of the test: Antibacterial activity against Pseudomonas aeruginosa MTCC 741 at 4 mg/ml after 24 hr by agar well diffusion assay. It counts as functional, organism-based.
The next test relates to Escherichia coli. Nature of the test: Antibacterial activity against Escherichia coli MTCC 1652 at 4 mg/ml after 24 hr by agar well diffusion assay. Format: functional, organism-based.
Test [15] concerns Rattus norvegicus. Nature of the test: Anti-inflammatory activity in Rattus norvegicus Wistar albino (rat) assessed as inhibition of carrageenan-induced paw edema at 50 mg/kg, po administered 30 min prior to carrageenan-challenge measured at 2 hr by plethysmometric analysis relative to control. Format: functional.
Test [16] deals with Rattus norvegicus. Nature of the test: Anti-inflammatory activity in Rattus norvegicus Wistar albino (rat) assessed as inhibition of carrageenan-induced paw edema at 50 mg/kg, po administered 30 min prior to carrageenan-challenge measured at 1 hr by plethysmometric analysis relative to control. Format: functional.

Molecules are shown by their SMILES. ≈ marks a conversion by molar mass, not a printed value. Calls of active or inactive are those of the source. No cut-off for these calls is given here.

For the compound `COc1ccc2c(c1)c(CC(=O)O)c(C)n2C(=O)c1ccc(Cl)cc1` [INDOMETHACIN], the inhibition in vivo at 4 mg/kg in the test with Rattus norvegicus [1] was determined as 74.7%; in the test on Rattus norvegicus [2], 77.2%; with Rattus norvegicus [3], 81.9%; in the test on Rattus norvegicus [4], 69.6%.
Turning to `COc1ccc(C2CC(c3ccc(F)cc3)=NN2c2ccc(S(N)(=O)=O)cc2)cc1OC` (stereo unspecified), the results for the MIC against Bacillus subtilis [5] and against Staphylococcus aureus [6] were 128 µg/mL (≈ 281 µM) and 256 µg/mL (≈ 562 µM), respectively. Moreover, the zone of inhibition at 4000 µg/mL is 15.3 mm with Bacillus subtilis [7] and 14 mm in the test with Staphylococcus aureus [8]. Moreover, the inhibition in vivo at 50 mg/kg with Rattus norvegicus [9] was 53.1%; in the test on Rattus norvegicus [10], 62.8%; in the test with Rattus norvegicus [15] it was 53.5%; in the test on Rattus norvegicus [16] it was 62.3%. For the same compound, the MIC entry in the test on Candida albicans [11] and in the test on Saccharomyces cerevisiae [13] was “inactive” throughout. Moreover, the “diameter of the inhibition zone (DIZ)” value in the test on Candida albicans [12] and with Saccharomyces cerevisiae [14] was “inactive” throughout. Further, the outcome in the test with Pseudomonas aeruginosa and with Escherichia coli was inactive.
Take `COc1ccc(C2CC(c3ccc(F)cc3)=NN2c2ccc(S(N)(=O)=O)cc2)c(OC)c1` (stereo unspecified): the minimum inhibitory concentration (MIC) in the test with Bacillus subtilis [5] and with Staphylococcus aureus [6] was 128 µg/mL (≈ 281 µM) each time. Besides, the zone of inhibition at 4000 µg/mL with Bacillus subtilis [7] worked out at 16.3 mm; in the test with Staphylococcus aureus [8] it was 15.3 mm. For the same compound, the inhibition in vivo at 50 mg/kg in the test with Rattus norvegicus [9] came to 47.9%; with Rattus norvegicus [10] it was 47.7%; in the test on Rattus norvegicus [15], 35.4%; with Rattus norvegicus [16] it was 63.7%. Moreover, the MIC result with Candida albicans [11] and in the test on Saccharomyces cerevisiae [13] was “inactive” in each case. Besides, the “diameter of the inhibition zone (DIZ)” value in the test on Candida albicans [12] and with Saccharomyces cerevisiae [14] was “inactive” throughout. The result in the test on Pseudomonas aeruginosa and with Escherichia coli was inactive.
Regarding `COc1ccc(OC)c(C2CC(c3ccc(F)cc3)=NN2c2ccc(S(N)(=O)=O)cc2)c1` (stereo unspecified), the minimum inhibitory concentration (MIC) came to 128 µg/mL (≈ 281 µM) against Bacillus subtilis [5] and 256 µg/mL (≈ 562 µM) against Staphylococcus aureus [6]. Besides, the zone of inhibition at 4000 µg/mL was determined as 15 mm with Bacillus subtilis [7] and 13.6 mm in the test on Staphylococcus aureus [8]. The inhibition in vivo at 50 mg/kg was found to be 41.7% in the test on Rattus norvegicus [9], 48.3% in the test with Rattus norvegicus [10], 30.7% in the test with Rattus norvegicus [15] and 50.7% with Rattus norvegicus [16]. Moreover, the MIC result in the test with Candida albicans [11] and with Saccharomyces cerevisiae [13] was “inactive” each time. The “diameter of the inhibition zone (DIZ)” value in the test with Candida albicans [12] and with Saccharomyces cerevisiae [14] was “inactive” each time. Besides, the outcome with Pseudomonas aeruginosa and in the test with Escherichia coli was inactive.

As usually defined, the inhibition in vivo is how much of the control response was suppressed. In general, MIC refers to the least concentration at which growth counts as inhibited.
